Measurements published in patent publication US11203591B2, “Substituted 6-azabenzimidazole compounds” (Gilead Sciences, Inc., priority 2018, dated 2021).

Biological target: human HPK1 (MAP4K1) (Homo sapiens (Human), UniProt Q92918)
Assay: HPK1 IC50 Assay (TR-FRET peptide phosphorylation)
Assay type: biochemical
Summary of the method: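 Pre-activated, dually phosphorylated baculovirus-expressed HPK1 kinase domain (0.15 nM) preincubated 15 min with compound, then reacted 3 h at 25° C with 10 μM ATP and 1 μM STK S1 peptide in BES pH 7.0 buffer. Phosphopeptide read by TR-FRET (665/620 nm); four-parameter fit, geometric-mean IC50.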

[1] = recombinant HPK1 kinase domain 0.15 nM, 10 μM ATP, 1 μM STK S1 peptide, geometric mean of multiple experiments
[2] = 0.15 nM HPK1, 10 μM ATP, 1 μM STK S1 peptide substrate, geometric mean

human HPK1 (MAP4K1), sequence (Q92918 17-274): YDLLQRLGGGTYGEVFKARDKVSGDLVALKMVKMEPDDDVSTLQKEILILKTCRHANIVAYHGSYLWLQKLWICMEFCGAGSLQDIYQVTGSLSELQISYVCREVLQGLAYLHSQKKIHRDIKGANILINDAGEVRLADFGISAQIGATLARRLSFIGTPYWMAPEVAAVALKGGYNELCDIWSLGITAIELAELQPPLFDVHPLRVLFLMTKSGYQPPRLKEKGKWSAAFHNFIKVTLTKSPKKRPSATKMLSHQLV

SMILES | IC50 [1] | IC50 [2]
CC(=O)N1CCC2(CC1)C(=O)N([C@H]1C[C@@H](N3CCCCC3)C1)c1cc(-c3cc4ncn(C(C)C)c4c(Nc4cc(C(=O)NC(C)C)c(F)cc4F)n3)ccc12 [Example 180] | 0.2 nM | –
CC(C)n1cnc2cc(-c3cnc4c(c3)N([C@H]3C[C@@](C)(N5CCC6CC6C5)C3)C(=O)C4(C)C)nc(Nc3cc(C(=O)NC4(CF)CC4)c(Cl)c(F)c3F)c21 (some centres unmarked) [Example 227, 5-((6-(1-((1s,3s)-3-(3-Azabicyclo[4.1.0]heptan-3-yl)-3-methylcyclobutyl)-3,3-dimethyl-2-oxo-2,3-dihydro-1H-pyrrolo[3,2-b]pyridin-6-yl)-3-isopropyl-3H-imidazo[4,5-c]pyridin-4-yl)amino)-2-chloro-3,4-difluoro-N-(1-(fluoromethyl)cyclopropyl)benzamide] | 0.1 nM | –
Cc1c(C(=O)NC2(C(F)F)CC2)cc(Nc2nc(-c3cnc4c(c3)N([C@H]3C[C@@H](N5C[C@H]6CC[C@@H]5C6)C3)C(=O)C4(C)C)cc3ncn(C(C)C)c23)c(F)c1F [Example 64] | 0.1 nM | –
CNC(=O)c1cc(Nc2nc(-c3ccc4c(c3)N([C@H]3C[C@@H](N5CCCCC5)C3)C(=O)C43CCN(C(C)=O)CC3)cc3ncn(C4CC4)c23)ccc1Cl [Example 47] | 0.2 nM | –
Cc1c(C(=O)NCC(F)F)cc(Nc2nc(-c3cnc4c(c3)N([C@H]3C[C@@](C)(N5CCCC6(CC6)C5)C3)C(=O)C4(C)C)cc3ncn(C(C)C)c23)c(F)c1F [Example 284, N-(2,2-difluoroethyl)-5-((6-(3,3-dimethyl-1-((1s,3s)-3-methyl-3-(5-azaspiro[2.5]octan-5-yl)cyclobutyl)-2-oxo-2,3-dihydro-1H-pyrrolo[3,2-b]pyridin-6-yl)-3-isopropyl-3H-imidazo[4,5-c]pyridin-4-yl)amino)-3,4-difluoro-2-methylbenzamide] | – | 0.1 nM
CCNC(=O)c1cc(Nc2nc(-c3cnc4c(c3)N([C@H]3C[C@@](C)(N5CCCC6(CC6)C5)C3)C(=O)C4(C)C)cc3ncn(C(C)C)c23)c(F)c(F)c1Cl [Example 283, 2-chloro-5-((6-(3,3-dimethyl-1-((1s,3s)-3-methyl-3-(5-azaspiro[2.5]octan-5-yl)cyclobutyl)-2-oxo-2,3-dihydro-1H-pyrrolo[3,2-b]pyridin-6-yl)-3-isopropyl-3H-imidazo[4,5-c]pyridin-4-yl)amino)-N-ethyl-3,4-difluorobenzamide] | – | 0.09 nM
Cc1c(C(=O)NC2(C(F)F)CC2)cc(Nc2nc(-c3cnc4c(c3)N(C3CC(C)(N5CCC6C[C@@H]6C5)C3)C(=O)C4(C)C)cc3ncn(C(C)C)c23)c(F)c1F (some centres unmarked) [Example 231, 5-((6-(1-((1s,3s)-3-(3-Azabicyclo[4.1.0]heptan-3-yl)-3-methylcyclobutyl)-3,3-dimethyl-2-oxo-2,3-dihydro-1H-pyrrolo[3,2-b]pyridin-6-yl)-3-isopropyl-3H-imidazo[4,5-c]pyridin-4-yl)amino)-N-(1-(difluoromethyl)cyclopropyl)-3,4-difluoro-2-methylbenzamide] | 0.1 nM | –
CC(C)n1cnc2cc(-c3cnc4c(c3)N(C3CC(C)(N5CCC6C[C@@H]6C5)C3)C(=O)C4(C)C)nc(Nc3cc(C(=O)NC4(CF)CC4)c(Cl)c(F)c3F)c21 (some centres unmarked) [Example 258, 5-((6-(1-((1s,3s)-3-(3-azabicyclo[4.1.0]heptan-3-yl)-3-methylcyclobutyl)-3,3-dimethyl-2-oxo-2,3-dihydro-1H-pyrrolo[3,2-b]pyridin-6-yl)-3-isopropyl-3H-imidazo[4,5-c]pyridin-4-yl)amino)-2-chloro-3,4-difluoro-N-(1-(fluoromethyl)cyclopropyl)benzamide] | 0.09 nM | –
CC(C)n1cnc2cc(-c3cnc4c(c3)N(C3CC(C)(N5CCC6C[C@@H]6C5)C3)C(=O)C4(C)C)nc(Nc3cc(C(=O)NC4(C(F)F)CC4)c(Cl)c(F)c3F)c21 (some centres unmarked) [Example 261, 5-((6-(1-((1s,3s)-3-(3-azabicyclo[4.1.0]heptan-3-yl)-3-methylcyclobutyl)-3,3-dimethyl-2-oxo-2,3-dihydro-1H-pyrrolo[3,2-b]pyridin-6-yl)-3-isopropyl-3H-imidazo[4,5-c]pyridin-4-yl)amino)-2-chloro-N-(1-(difluoromethyl)cyclopropyl)-3,4-difluorobenzamide] | 0.09 nM | –
CC(C)n1cnc2cc(-c3cnc4c(c3)N([C@H]3C[C@@](C)(N5CCCCC5)C3)C(=O)C4(C)C)nc(Nc3cc(C(=O)NC4(CF)CC4)c(Cl)c(F)c3F)c21 [Example 211, 2-Chloro-5-((6-(3,3-dimethyl-1-((1s,3s)-3-methyl-3-(piperidin-1-yl)cyclobutyl)-2-oxo-2,3-dihydro-1H-pyrrolo[3,2-b]pyridin-6-yl)-3-isopropyl-3H-imidazo[4,5-c]pyridin-4-yl)amino)-3,4-difluoro-N-(1-(fluoromethyl)cyclopropyl)benzamide] | 0.1 nM | –
CC(C)n1cnc2cc(-c3cnc4c(c3)N(C3CC(C)(N5CCC6C[C@@H]6C5)C3)C(=O)C4(C)C)nc(Nc3cc(C(=O)NC4(C(F)F)CC4)c(Cl)c(F)c3F)c21 (some centres unmarked) [Example 262, 5-((6-(1-((1s,3s)-3-(3-azabicyclo[4.1.0]heptan-3-yl)-3-methylcyclobutyl)-3,3-dimethyl-2-oxo-2,3-dihydro-1H-pyrrolo[3,2-b]pyridin-6-yl)-3-isopropyl-3H-imidazo[4,5-c]pyridin-4-yl)amino)-2-chloro-N-(1-(difluoromethyl)cyclopropyl)-3,4-difluorobenzamide] | 0.1 nM | –
CC(C)n1cnc2cc(-c3cnc4c(c3)N([C@H]3C[C@@](C)(N5CC6CC6C5)C3)C(=O)C4(C)C)nc(Nc3cc(C(=O)NC4(C(F)F)CC4)c(Cl)c(F)c3F)c21 (some centres unmarked) [Example 234, 5-((6-(1-((1s,3s)-3-(3-Azabicyclo[3.1.0]hexan-3-yl)-3-methylcyclobutyl)-3,3-dimethyl-2-oxo-2,3-dihydro-1H-pyrrolo[3,2-b]pyridin-6-yl)-3-isopropyl-3H-imidazo[4,5-c]pyridin-4-yl)amino)-2-chloro-N-(1-(difluoromethyl)cyclopropyl)-3,4-difluorobenzamide] | 0.3 nM | –
CCNC(=O)c1cc(Nc2nc(-c3cc4c(nc3F)C(C)(C)C(=O)N4[C@H]3C[C@@](C)(N4CCC5CC5C4)C3)cc3ncn(C(C)C)c23)c(F)c(F)c1C (some centres unmarked) [Example 255, 5-((6-(1-((1s,3s)-3-(3-azabicyclo[4.1.0]heptan-3-yl)-3-methylcyclobutyl)-5-fluoro-3,3-dimethyl-2-oxo-2,3-dihydro-1H-pyrrolo[3,2-b]pyridin-6-yl)-3-isopropyl-3H-imidazo[4,5-c]pyridin-4-yl)amino)-N-ethyl-3,4-difluoro-2-methylbenzamide] | 0.1 nM | –

Further lines, results first:

IC50 [1] | IC50 [2] | SMILES
0.1 nM | – | CC(=O)N1CCC2(CC1)C(=O)N([C@H]1C[C@@H](N3CCCCC3)C1)c1cc(-c3cc4ncn(C(C)C)c4c(Nc4ccc(C)c(C(=O)NC(C)C)c4)n3)ccc12 [Example 83, 5-((6-(1′-acetyl-2-oxo-1-((1s,3s)-3-(piperidin-1-yl)cyclobutyl)spiro[indoline-3,4′-piperidin]-6-yl)-3-isopropyl-3H-imidazo[4,5-c]pyridin-4-yl)amino)-N-isopropyl-2-methylbenzamide]
0.09 nM | – | CNC(=O)c1cc(Nc2nc(-c3ccc4c(c3)N([C@H]3C[C@@H](N5CCCCC5)C3)C(=O)C43CCN(C(=O)C(C)(C)C)CC3)cc3ncn(C4CC4)c23)ccc1C [Example 98]
0.2 nM | – | CNC(=O)c1cc(Nc2nc(-c3ccc4c(c3)N([C@H]3C[C@@H](N5CCCC(C(F)F)C5)C3)C(=O)C4(C)C)cc3ncn(C(C)C)c23)ccc1C (some centres unmarked) [Example 105, 5-((6-(1-((1s,3s)-3-(3-(difluoromethyl)piperidin-1-yl)cyclobutyl)-3,3-dimethyl-2-oxoindolin-6-yl)-3-isopropyl-3H-imidazo[4,5-c]pyridin-4-yl)amino)-N,2-dimethylbenzamide]
0.05 nM | – | CC[C@H](C)n1cnc2cc(-c3ccc4c(c3)N([C@H]3C[C@@H](N5CCCCC5)C3)C(=O)C4(C)C)nc(Nc3ccc(Cl)c(C(=O)NC)c3)c21 [Example 114]
1.1 nM | – | CC(=O)N1CC2(C1)C(=O)N([C@H]1C[C@@H](N3CCCCC3)C1)c1cc(-c3cc4ncn(C(C)C)c4c(Nc4cc(C(=O)NC(C)C)c(C)cc4F)n3)ccc12 [Example 179]
0.2 nM | – | CNC(=O)c1cc(Nc2nc(-c3ccc4c(c3)N([C@H]3C[C@@H](N5CCCCC5)C3)C(=O)C43CCN(C(=O)C45CC(O)(C4)C5)CC3)cc3ncn(C(C)C)c23)ccc1C [Example 148]
0.3 nM | – | CNC(=O)c1cc(Nc2nc(-c3ccc4c(c3)N([C@H]3C[C@@H](N5CCCCC5)C3)C(=O)C4(C)C)cc3ncn(C(C)C)c23)ccc1OC(F)(F)F [Example 140]
0.3 nM | – | Cc1ccc(Nc2nc(-c3cnc4c(c3)N([C@H]3C[C@@H](N5CCCCC5)C3)C(=O)C4(C)C)cc3ncn(C(C)C)c23)cc1C(=O)NC1(C(F)F)CC1 [Example 19]
0.1 nM | – | Cc1ccc(Nc2nc(-c3ccc4c(c3)N([C@H]3C[C@@H](N5CCCCC5)C3)C(=O)C4(C)C)cc3ncn(C(C)C)c23)cc1C(=O)N[C@H](C)CF [Example 30]
0.1 nM | – | CNC(=O)c1cc(Nc2nc(-c3ccc4c(c3)N([C@H]3C[C@@H](N5CCCCC5)C3)C(=O)C4(C)O)cc3ncn(C(C)C)c23)ccc1Cl (some centres unmarked) [Example 63]
0.09 nM | – | Cc1ccc(Nc2nc(-c3ccc4c(c3)N([C@H]3C[C@@H](N5CCCCC5)C3)C(=O)C4(C)C)cc3ncn(C(C)C)c23)cc1C(=O)NC1(CF)CC1 [Example 174, 5-((6-(3,3-dimethyl-2-oxo-1-((1s,3s)-3-(piperidin-1-yl)cyclobutyl)indolin-6-yl)-3-isopropyl-3H-imidazo[4,5-c]pyridin-4-yl)amino)-N-(1-(fluoromethyl)cyclopropyl)-2-methylbenzamide]
0.1 nM | – | CNC(=O)c1cc(Nc2nc(-c3ccc4c(c3)N([C@H]3C[C@@H](N5CCCCC5)C3)C(=O)C43CCOCC3)cc3ncn(C4CC4)c23)ccc1C [Example 127]
0.1 nM | – | CNC(=O)c1cc(Nc2nc(-c3ccc4c(c3)N([C@H]3C[C@@H](N5CCCCC5)C3)C(=O)C43CCN(C(C)=O)CC3)cc3ncn(C(C)C)c23)ccc1C [Example 46]
